Test results as given in article PMC11731258, “The structural basis for high-affinity c-di-GMP binding to the GSPII-B domain of the traffic ATPase PilF from Thermus thermophilus” (The Journal of Biological Chemistry, 2024).
Where two headings read alike, the source gives them in different places.

Tests used:
PilF159-302 K167R = biological target: T1, PilF159-302 K167R (Thermus thermophilus, UniProt Q5SLC9, K167R); assay: ITC binding to PilF159-302 K167R; details: 20 °C
T1 sequence (Q5SLC9 159-302 K167R): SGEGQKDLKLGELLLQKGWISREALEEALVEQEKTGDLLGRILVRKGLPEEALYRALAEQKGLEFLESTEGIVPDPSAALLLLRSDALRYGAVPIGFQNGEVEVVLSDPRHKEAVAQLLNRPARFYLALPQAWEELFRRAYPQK
Protocol: (§1) To assess the ligand-binding capabilities of the various PilF constructs, triplicates of ITC measurements were recorded for each construct. The measurements were carried out using a MicroCal ITC200 (Malvern Panalytical). All ITC experiments were conducted at 20 °C with 50 mM Tris-HCl pH 7.5, 200 mM sodium chloride, 1 mM β-mercaptoethanol as the sample buffer. All protein samples were extensively dialyzed against the sample buffer and the buffer used for dialysis was used to dilute protein and c-di-GMP samples in preparation for the ITC measurements. Each measurement was conducted using the following protocol. In total, 39.8 μl c-di-GMP were titrated to 270 μl protein in 20 separate injections in 180 s intervals with a stirring speed of 750 rpm. After an initial delay of 120 s, the first injection of 0.2 μl c-di-GMP with a duration of 0.4 s was followed by 19 injections of 2 μl with a duration of 4 s. During the measurement, the feedback mode was set to high and the reference power to 11 μcal s^−1. To optimize precision of the measurements, protein and c-di-GMP concentrations were adjusted to the binding capabilities of the respective constructs and ranged from 5 to 200 μM for protein and 50 to 2000 μM for c-di-GMP. All thermograms were processed using Origin 7.0 (OriginLab) using a one-site– or two-site–binding model dependent on the number of expected binding events.

[1] = biological target: degenerate EAL-domain of FimX; design: method as in PMID 19679088; details: cited from earlier work
PilF159-302 K167R+E170D = biological target: T2, PilF159-302 K167R+E170D (Thermus thermophilus, UniProt Q5SLC9, E170D/K167R); assay: ITC binding to PilF159-302 K167R-E170D; details: 20 °C
T2 sequence (Q5SLC9 159-302 K167R/E170D): T1 sequence (Q5SLC9 159-302 K167R)
Protocol: as §1

[2] = biological target: T3, PilF1-889 (full-length PilF) (Thermus thermophilus, UniProt Q5SLC9); assay: ITC c-di-GMP binding to full-length PilF; details: 20 °C; for Kd: pH 7.5, two-site model
T3 sequence (Q5SLC9 1-889): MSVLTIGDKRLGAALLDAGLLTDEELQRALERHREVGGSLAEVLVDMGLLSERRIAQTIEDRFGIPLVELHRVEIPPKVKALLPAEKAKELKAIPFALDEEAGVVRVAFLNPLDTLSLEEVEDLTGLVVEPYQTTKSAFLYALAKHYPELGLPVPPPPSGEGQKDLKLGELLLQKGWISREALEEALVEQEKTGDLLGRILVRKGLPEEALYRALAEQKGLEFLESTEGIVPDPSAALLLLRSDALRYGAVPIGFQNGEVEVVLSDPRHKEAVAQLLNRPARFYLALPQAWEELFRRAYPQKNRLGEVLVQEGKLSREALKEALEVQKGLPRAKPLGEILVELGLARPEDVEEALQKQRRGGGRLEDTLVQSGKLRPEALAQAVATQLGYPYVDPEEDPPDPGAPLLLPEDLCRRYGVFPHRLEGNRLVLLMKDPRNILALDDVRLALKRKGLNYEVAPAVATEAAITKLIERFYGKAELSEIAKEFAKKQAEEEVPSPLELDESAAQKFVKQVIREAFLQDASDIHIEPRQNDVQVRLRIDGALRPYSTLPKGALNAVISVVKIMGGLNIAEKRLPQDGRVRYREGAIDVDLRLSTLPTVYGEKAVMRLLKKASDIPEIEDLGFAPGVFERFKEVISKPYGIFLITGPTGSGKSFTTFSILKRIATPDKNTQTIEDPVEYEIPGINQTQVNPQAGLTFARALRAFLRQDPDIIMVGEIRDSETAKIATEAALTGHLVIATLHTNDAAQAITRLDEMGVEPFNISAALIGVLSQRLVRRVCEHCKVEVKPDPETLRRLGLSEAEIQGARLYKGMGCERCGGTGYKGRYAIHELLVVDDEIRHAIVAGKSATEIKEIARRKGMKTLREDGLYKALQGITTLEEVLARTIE
Protocol: as §1

PilZ domain of PlzD = biological target: PilZ domain of PlzD; design: method as in PMID 18034161; details: cited from earlier work
PilB = biological target: PilB; design: method as in PMID 27578558, PMID 31868878; details: cited from earlier work
[3] = biological target: T4, PilF1-482 (GSPII-A, -B, -C; lacks ATPase domain) (Thermus thermophilus, UniProt Q5SLC9); assay: ITC binding to PilF1-482; details: 20 °C; for Kd: pH 7.5, two-site model
T4 sequence (Q5SLC9 1-482): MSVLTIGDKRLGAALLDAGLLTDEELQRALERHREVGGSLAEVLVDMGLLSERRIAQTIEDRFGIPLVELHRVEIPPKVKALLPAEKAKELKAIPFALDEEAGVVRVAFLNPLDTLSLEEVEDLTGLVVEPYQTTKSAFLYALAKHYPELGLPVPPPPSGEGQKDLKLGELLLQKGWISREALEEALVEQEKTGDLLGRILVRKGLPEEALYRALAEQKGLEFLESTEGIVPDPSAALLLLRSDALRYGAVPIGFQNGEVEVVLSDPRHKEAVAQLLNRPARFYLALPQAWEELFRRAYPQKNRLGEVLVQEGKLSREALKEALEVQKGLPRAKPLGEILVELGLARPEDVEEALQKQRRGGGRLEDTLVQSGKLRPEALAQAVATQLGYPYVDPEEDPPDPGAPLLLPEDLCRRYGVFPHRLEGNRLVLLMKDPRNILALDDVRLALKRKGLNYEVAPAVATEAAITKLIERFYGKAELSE
Protocol: as §1

PilB2 = biological target: PilB2; design: method as in PMID 27578558, PMID 31868878; details: cited from earlier work

Nc1nc2c(ncn2[C@@H]2O[C@@H]3COP(=O)(O)O[C@H]4[C@@H](O)[C@H](n5cnc6c(=O)[nH]c(N)nc65)O[C@@H]4COP(=O)(O)O[C@H]3[C@H]2O)c(=O)[nH]1 [c-di-GMP, cyclic dimeric guanosine monophosphate]
N (PilF159-302 K167R): 0.79 ± 0.03
ΔH (PilF159-302 K167R): -10.42 ± 0.552 kcal/mol
ΔS (PilF159-302 K167R): -4.4 ± 1.9 cal/mol/deg
Kd (PilF159-302 K167R; pH 7.5): 150 ± 7 nM
Kd [1]: 100 to 200 nM
N (PilF159-302 K167R+E170D): 0.76 ± 0.03
ΔH (PilF159-302 K167R+E170D): -12.843 ± 0.363 kcal/mol
ΔS (PilF159-302 K167R+E170D): -11.6 ± 1.3 cal/mol/deg
Kd (PilF159-302 K167R+E170D; pH 7.5): 92 ± 8 nM
ΔH, site 1 ([2]; Table S1 site 1): -11.763 ± 0.78 kcal/mol
ΔS, site 1 ([2]; Table S1 site 1): -10.4 ± 2.7 cal/mol/deg
N, site 1 ([2]; Table S1 site 1 (low affinity)): 0.72 ± 0.10
ΔH, site 2 ([2]; Table S1 site 2): -15.683 ± 0.97 kcal/mol
ΔS, site 2 ([2]; Table S1 site 2): -16.5 ± 2.2 cal/mol/deg
N, site 2 ([2]; Table S1 site 2 (high affinity)): 0.59 ± 0.03
Kd ([2]; read-out: KD, high-affinity site (KD1 in text and Fig. 1C; site 2 in Table S1)): 10 ± 5 nM
Kd ([2]; read-out: KD, low-affinity site (KD2 in text and Fig. 1C; site 1 in Table S1)): 324 ± 2 nM
Kd (PilZ domain of PlzD): 100 to 300 nM
Kd (PilB): 53 nM
N, site 1 ([3]; Table S1 site 1): 0.98 ± 0.04
ΔH, site 1 ([3]; Table S1 site 1): -12.793 ± 0.095 kcal/mol
ΔS, site 1 ([3]; Table S1 site 1): -14.6 ± 0.2 cal/mol/deg
N, site 2 ([3]; Table S1 site 2): 0.85 ± 0.03
ΔH, site 2 ([3]; Table S1 site 2): -17.536 ± 0.128 kcal/mol
ΔS, site 2 ([3]; Table S1 site 2): -24.3 ± 0.3 cal/mol/deg
Kd ([3]; read-out: KD, high-affinity site (KD1 in text; site 2 in Table S1)): 17 ± 1 nM
Kd ([3]; read-out: KD, low-affinity site (KD2 in text; site 1 in Table S1)): 461 ± 36 nM
Kd (PilB2): 13.5 nM
